According to patent publication US9403804B2, “Inhibitors of c-fms kinase” (Janssen Pharmaceutica NV, priority 2006, dated 2016):

Tests used:
c-fms = c-fms (Homo sapiens (Human), UniProt P07333); assay: Autophosphorylation, fluorescence polarization competition immunoassay for c-fms inhibition; assay type: biochemical; conditions: averages of three independent measurements; read-out: 1 nM c-fms; peptide Pi assay IC-50
Protocol: Fluorescence Polarization Competition Immunoassay
The assay buffer used was 100 mM 4-(2-hydroxyethyl)piperazine 1-ethanesulfonic acid (HEPES), pH 7.5, 1 mM 1,4-dithio-DL-threitol (DTT), 0.01% (v/v) Tween-20. Compounds were diluted in assay buffer containing 4% dimethylsulfoxide (DMSO) just prior to the assay. […] The kinase reaction was initiated by adding 2 μL of 5 mM ATP (Sigma) in assay buffer. […] Control reactions were ran in each plate: in positive and negative control wells, assay buffer (made 4% in DMSO) was substituted for the compound; in addition, positive control wells received 1.2 μL of 50 mM ethylenediaminetetraaceticacid (EDTA).
The plates were incubated at room temperature for 45 min. At the end of the incubation, the reaction was quenched with 1.2 μL of 50 mM EDTA (EDTA was not added to the positive control wells at this point; see above). Following a 5-min incubation, each well received 10 μL of a 1:1:3 mixture of anti-phosphotyrosine antibody, 10×, PTK green tracer, 10× (vortexed), FP dilution buffer, respectively (all from PanVera, cat. # P2837). The plate was covered, incubated for 30 min at room temperature and the fluorescence polarization was read on the Analyst. The instrument settings were: 485 nm excitation filter; 530 nm emission filter; Z height: middle of well; G factor: 0.93. […] The reported IC50 values are averages of three independent measurements.

[1] = tested on: mouse bone-marrow derived macrophages (BMDM); assay: CSF-1-driven mouse bone-marrow derived macrophages proliferation assay (BrDU incorporation); assay type: cell-based; conditions: 30 hrs culture, read-out: mCSF driven proliferation BMDM (Mouse) IC-50
Protocol: CSF-1-Driven Mouse Bone-Marrow Derived Macrophages Assay
Macrophages are derived by culturing mouse bone marrow in alpha-MEM supplemented with 10% FCS and 50 ng/ml recombinant mouse CSF-1 in bacteriologic dishes. On the sixth day, macrophages are detached from dishes, washed, and resuspended to 0.05 million cells/ml in alpha-MEM containing 10% FCS. One hundred ul of cell suspension are distributed per well into 96 well culture plates. Wells are further supplemented with the addition of 50 ul media containing 15 ng/ml CSF-1, 3 uM Indomethacin, and 3× of a dilution series of test compounds. The cells are cultured for 30 hrs at 37 degrees and 5% CO2. During the final six hours, cultures are supplemented with an additional 30 ul of media containing a 1:500 dilution of bromodeoxyuridine (BrDU). At the end of the culture period, the plates are spun at 1000 RPM for 1 minute and 130 ul of media is removed with a pipet and replaced with 150 ul of fixative solution for 1 hour @ room temperature. The fixative is then dispelled from the plates and the plates allowed to air dry. Incorporation of BrDU into the fixed, dried cells is quantified using a specific ELISA.

c-fms, sequence (P07333 20-972): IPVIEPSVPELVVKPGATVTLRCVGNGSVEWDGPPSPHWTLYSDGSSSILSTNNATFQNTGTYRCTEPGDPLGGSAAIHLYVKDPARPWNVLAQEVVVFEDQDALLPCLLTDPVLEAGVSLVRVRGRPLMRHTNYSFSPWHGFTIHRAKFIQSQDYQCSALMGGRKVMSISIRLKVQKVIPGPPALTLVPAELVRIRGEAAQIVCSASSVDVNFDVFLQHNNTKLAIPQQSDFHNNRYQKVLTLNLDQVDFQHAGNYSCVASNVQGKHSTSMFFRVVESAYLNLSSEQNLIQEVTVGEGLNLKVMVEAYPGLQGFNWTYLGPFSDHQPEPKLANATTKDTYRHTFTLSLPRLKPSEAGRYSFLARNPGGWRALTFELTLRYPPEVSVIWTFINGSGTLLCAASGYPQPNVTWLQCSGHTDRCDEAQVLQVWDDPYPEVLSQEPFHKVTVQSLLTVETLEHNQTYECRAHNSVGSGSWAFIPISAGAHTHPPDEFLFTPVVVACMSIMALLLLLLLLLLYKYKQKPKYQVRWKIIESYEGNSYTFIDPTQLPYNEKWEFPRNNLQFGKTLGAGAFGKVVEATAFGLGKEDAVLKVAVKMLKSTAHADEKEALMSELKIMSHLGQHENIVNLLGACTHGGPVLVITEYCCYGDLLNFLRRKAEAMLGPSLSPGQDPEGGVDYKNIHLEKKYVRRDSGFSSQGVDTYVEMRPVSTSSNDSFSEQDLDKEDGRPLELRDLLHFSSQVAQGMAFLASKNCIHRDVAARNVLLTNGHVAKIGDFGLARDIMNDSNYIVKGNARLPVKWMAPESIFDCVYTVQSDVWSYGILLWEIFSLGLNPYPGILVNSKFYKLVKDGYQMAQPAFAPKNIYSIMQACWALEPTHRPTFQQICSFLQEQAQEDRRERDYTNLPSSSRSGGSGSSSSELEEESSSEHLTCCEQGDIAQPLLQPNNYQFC

SMILES	IC50 (c-fms)	IC50 [1]
CC1(C)CC=C(c2cc(C3(C#N)CCCCC3)ccc2NC(=O)c2nc(C#N)c[nH]2)CC1 [Example 14, 4-Cyano-1H-imidazole-2-carboxylic acid [4-(1-cyano-cyclohexyl)-2-(4,4-dimethyl-cyclohex-1-enyl)-phenyl}-amide]	20 nM	150 nM
CC1(C)CC=C(c2cc([C@]3(O)CC[C@H](N4CCOCC4)CC3)ccc2NC(=O)c2nc(C#N)c[nH]2)CC1 [Example 45, 4-Cyano-1H-imidazole-2-carboxylic acid [2-(4,4-dimethyl-cyclohex-1-enyl)-4-(cis-1-hydroxy-trans-4-morpholin-4-yl-cyclohexyl)-phenyl]-amide]	–	8.5 nM
CC1(C)CC=C(c2cc(C3CCC(N4CCOCC4)CC3)ccc2NC(=O)c2nc(C#N)c[nH]2)CC1 (stereo not drawn) [Example 27, 4-Cyano-1H-imidazole-2-carboxylic acid [2-(4,4-dimethyl-cyclohex-1-enyl)-4-(4-morpholin-4-yl-cyclohexyl)-phenyl]-amide]	1.9 nM	16 nM
CC1(C)CC=C(c2cc([C@]3(O)CC[C@@H](N4CCOCC4)CC3)ccc2NC(=O)c2nc(C#N)c[nH]2)CC1 [Example 44, 4-Cyano-1H-imidazole-2-carboxylic acid [2-(4,4-dimethyl-cyclohex-1-enyl)-4-(cis-1-hydroxy-cis-4-morpholin-4-yl-cyclohexyl)-phenyl]-amide]	–	2.8 nM
CC1(C)CC=C(c2cc(C3(C#N)CC3)ccc2NC(=O)c2nc(C#N)c[nH]2)CC1 [Example 4, 4-Cyano-1H-imidazole-2-carboxylic acid [4-(1-cyano-cyclopropyl)-2-(4,4-dimethyl-cyclohex-1-enyl)-phenyl]-amide]	9.5 nM	99 nM
CN1CCN(C2CCC(c3ccc(NC(=O)c4nc(C#N)c[nH]4)c(C4=CCC(C)(C)CC4)c3)CC2)CC1 (stereo not drawn) [Example 28, 4-Cyano-1H-imidazole-2-carboxylic acid {2-(4,4-dimethyl-cyclohex-1-enyl)-4-[4-(4-methyl-piperazin-1-yl)-cyclohexyl]-phenyl}-amide]	0.99 nM	10.2 nM
CC1(C)CC=C(c2cc(C3(O)CCCCC3)ccc2NC(=O)c2nc(C#N)c[nH]2)CC1 [Example 1, 4-Cyano-1H-imidazole-2-carboxylic acid [2-(4,4-dimethyl-cyclohex-1-enyl)-4-(1-hydroxy-cyclohexyl)-phenyl]-amide]	5.9 nM	72 nM
COCCNC1(c2ccc(NC(=O)c3nc(C#N)c[nH]3)c(C3=CCC(C)(C)CC3)c2)CCCCC1 [Example 43, 4-Cyano-1H-imidazole-2-carboxylic acid {2-(4,4-dimethyl-cyclohex-1-enyl)-4-[1-(2-methoxy-ethylamino)-cyclohexyl]-phenyl}-amide]	2.9 nM	111 nM
CC1(C)CC=C(c2cc([C@]3(O)CC[C@@H](C(=O)O)CC3)ccc2NC(=O)c2ncc(C#N)[nH]2)CC1 [Example 2, 4-[4-[(5-Cyano-1H-imidazole-2-carbonyl)-amino]-3-(4,4-dimethyl-cyclohex-1-enyl)-phenyl]-cis-4-hydroxy-cyclohexanecarboxylic acid]	0.65 nM	87 nM
CC1(C)CC=C(c2cc(C3(O)CCCC3)ccc2NC(=O)c2nc(C#N)c[nH]2)CC1 [Example 3, 4-Cyano-1H-imidazole-2-carboxylic acid [2-(4,4-dimethyl-cyclohex-1-enyl)-4-(1-hydroxy-cyclopentyl)-phenyl]-amide]	2.3 nM	11.7 nM
